Measured values: the supplement of paper PMC12317010

Assay: collision cross section in nitrogen (drift tube, single-field); higher = larger gas-phase ion size
[1] = ion type: [M+H], ion source: ESI, ion mode: Positive
[2] = ion type: [M+Na], ion source: ESI, ion mode: Positive
[3] = ion type: [M+H], ion source: APCI, ion mode: Positive
[4] = ion type: [M-H], ion source: ESI, ion mode: Negative
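Further: chemical standards at 10 µM analysed by drift tube IMS-QTOF MS in about 3.95 torr nitrogen, mean of duplicate injections differing ≤1%, mass error below 10 ppm.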

collision cross section in nitrogen [1] [Å²] | collision cross section in nitrogen [2] [Å²] | collision cross section in nitrogen [3] [Å²] | collision cross section in nitrogen [4] [Å²] | collision cross section in nitrogen (ion type: [M+], ion source: APCI, ion mode: Positive) [Å²] | SMILES
177.4 | 183.2 |  |  |  | N=C(N)c1ccc(OCCCCCOc2ccc(C(=N)N)cc2)cc1 [Pentamidine isethionate]
118.5 |  |  |  |  | Nc1cccnc1N [2,3-Diaminopyridine]
172.6 |  | 172.4 |  |  | Clc1ccc2c(c1)C(N1CCNCC1)=Nc1ccccc1O2 [Amoxapine]
 |  |  | 134.9 |  | NS(=O)(=O)c1ccc(Cl)cc1 [4-Chlorobenzenesulphonamide]
 | 177 |  |  |  | CCCCOCCOC(=O)COc1ccc(Cl)cc1Cl [2,4-D-Butotyl]
 |  | 143.3 |  |  | CCC(=O)C=Cc1ccc(OC)cc1 [1-(4-Methoxyphenyl)-1-pentene-3-one]
 |  |  | 162.8 |  | Cc1ccc(C(=O)c2cc(O)c(O)c([N+](=O)[O-])c2)cc1 [Tolcapone]
 | 190 |  |  |  | CCCCCCC(C)Nc1ccc(Nc2ccccc2)cc1 (centres undefined) [N-(1-Methylheptyl)-N'-phenyl-1,4-benzenediamine]
 |  | 122.3 |  |  | c1ccc2cnccc2c1 [Isoquinoline]
 |  |  | 134.4 |  | Cc1ccc(S(=O)(=O)O)cc1 [4-Methylbenzenesulfonic acid hydrate]
192.4 | 199.7 | 192.3 | 199.2 |  | Cc1ncc([C@@H](CCCCCCc2ccc3c(n2)NCCC3)CC(=O)O)cn1
 | 135.4 |  |  |  | Cc1ccc(-c2ccccc2)cc1 [4-Phenyltoluene]
230.6 | 233.3 | 231.8 | 233.1 |  | COc1ccc(S(=O)(=O)N2C(=O)[C@@](c3ccccc3OC)(N3C[C@H](O)C[C@H]3C(=O)N(C)C)c3cc(Cl)ccc32)c(OC)c1 [Nelivaptan]
 |  |  | 204.4 |  | O=[N+]([O-])c1ccc(Nc2ccc(Nc3ccccc3)c(S(=O)(=O)O)c2)c([N+](=O)[O-])c1 [C.I. Acid Orange 3]
 |  |  | 130.1 |  | CC(=O)c1ccc(O)cc1Br [1-(2-Bromo-4-hydroxyphenyl)ethanone]
 | 175.3 |  | 171.4 |  | OC[C@@H](O)[C@@H](O[C@@H]1O[C@H](CO)[C@H](O)[C@H](O)[C@H]1O)[C@H](O)[C@@H](O)CO [D-Lactitol monohydrate]
 |  |  | 207 |  | Cc1ccc([N+](=O)[O-])cc1N=Nc1c(O)c(C(=O)Nc2ccccc2)cc2ccccc12 [C.I. Pigment Red 22]
178.5 | 195.9 | 179.5 | 179.6 |  | O=S(=O)(c1ccc2c(c1)CCCN2)N1CCC[C@@H]2CCCC[C@H]21
144.3 |  | 144.7 |  | 143.6 | CCN(CCC#N)c1cccc(C)c1 [3-(Ethyl(3-methylphenyl)amino)propanenitrile]
169 | 176.2 | 169.2 | 179.5 |  | CNC(=C[N+](=O)[O-])NCCSCc1ccc(CN(C)C)o1 [Ranitidine]
 | 176.9 | 171.2 |  |  | C=C(C)C(=O)OCCOCCOCCOCCOC(=O)C(=C)C [Tetraethyleneglycol dimethacrylate]

SMILES | collision cross section in nitrogen [1] [Å²] | collision cross section in nitrogen [2] [Å²] | collision cross section in nitrogen [3] [Å²] | collision cross section in nitrogen [4] [Å²] | collision cross section in nitrogen (ion type: [M+], ion source: APCI, ion mode: Positive) [Å²]
N#CCc1ccc(Cl)cc1 [4-Chlorophenylacetonitrile] |  |  |  | 130.4 | 
CNC(=O)Oc1ccccc1C1OCCO1 [Dioxacarb] |  | 151.9 |  |  | 
CON(C)C(=O)Nc1ccc(Br)c(Cl)c1 [Chlorbromuron] |  |  |  | 152.8 | 
CC(C)C1CCC(Cc2ccc(Cl)cc2)C1(O)Cn1cncn1 (centres undefined) [Ipconazole] | 173.8 | 179.6 | 173.8 |  | 
O=C(N[C@H]1CN2CCC1CC2)c1cc2ccoc2cn1 [(R)-N-(Quinuclidin-3-yl)furo(2,3-C)pyridine-5-carboxamide] | 168 | 181 | 168.1 | 172.1 | 
